Assay [1] has as its system U937 cells. Nature of the assay: Inhibition rate of compound (1 μM) on necroptosis of U937 cells (TSZ-induced, CellTiter-Glo). The format is cell-based. The conditions noted are these: TSZ (hTNF-α, SM-164, Z-VAD-FMK) 20 hours. In short, it runs like this:
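Percent inhibition comes from ATP luminescence (CellTiter-Glo), referenced to wells without TSZ and wells with TSZ alone. The compound was added to U937 cells 15 min ahead of a TNF-α/SM-164/Z-VAD-FMK mix, followed by 20 h culture at 37° C, 5% CO2.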
(Cellular ATP, detected with luciferase, serves as a proxy for viable cell number.)

Assay [2] relates to U937 cells. The assay can be described thus: EC50 of necroptosis inhibition in U937 cells (TSZ-induced, CellTiter-Glo). The format is cell-based. The conditions noted are these: Homo sapiens, U-937; TSZ (hTNF-α, SM-164, Z-VAD-FMK) 20 hours; 10 concentration points; read-out: EC50 intervals of necroptosis inhibition in U937 cells. In short, it runs like this: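 Luminescent ATP readout (CellTiter-Glo) after 20 h gave viability of TSZ-challenged U937 cells; compounds were added 15 min ahead of TNF-α/SM-164/Z-VAD-FMK. EC50 derived by variable-slope nonlinear regression of inhibition relative to no-TSZ and TSZ-alone controls.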

The values that follow come from patent US20250368633A1, “AZEPINE FUSED RING COMPOUND AS RIPK1 INHIBITOR AND USE THEREOF” (ARTIVILA BIOPHARMA, priority 2022, published 2025).

Broadly, the EC50 is the midpoint of the concentration-response curve.

SMILES strings stand for the structures.

Take `C=CC(=O)NCC#Cc1ccc2c(c1)N(C)C(=O)[C@@H](NC(=O)C(=O)NCCc1ccccc1)CO2` [Example 89, (S)—N^1-(7-(3-acrylamidoprop-1-yn-1-yl)-5-methyl-4-oxo-2,3,4,5-tetrahydrobenzo[b][1,4]oxazepin-3-yl)-N^2-phenethyloxalamide]: the “Inhibition rate range of compounds (1 μM) on U937 cell necroptosis” value (from here on “Inhibition rate range of compounds”) in assay [1] is “A (A: ≥90%)”. The EC50 in assay [2] was below 0.1 µM.

On to `CN1C(=O)[C@@H](NC(=O)C(=O)NCCc2ccccc2)COc2ccc(C#CC3CN(C=O)C3)cc21` [Example 91, (S)—N^1-(7-((1-formylazetidin-3-yl)ethynyl)-5-methyl-4-oxo-2,3,4,5-tetrahydrobenzo[b][1,4]oxazepin-3-yl)-N^2-phenethyloxalamide], for which, in assay [1], the “Inhibition rate range of compounds” value is listed as “A (A: ≥90%)”. Further, the EC50 in assay [2] was below 0.1 µM.

Turning to `CN1C(=O)[C@@H](NC(=O)C(=O)NCCc2ccccc2)COc2ccc(C#CC3(O)CN(C=O)C3)cc21` [Example 92, (S)—N^1-(7-((1-formyl-3-hydroxyazetidin-3-yl)ethynyl)-5-methyl-4-oxo-2,3,4,5-tetrahydrobenzo[b][1,4]oxazepin-3-yl)-N^2-phenethyloxalamide], the “Inhibition rate range of compounds” value in assay [1] is reported as “A (A: ≥90%)”. Further, in assay [2], the concentration for a half-maximal effect (EC50) is below 0.1 µM.

`CCOC(=O)CCC#Cc1ccc2c(c1)N(C)C(=O)[C@@H](NC(=O)C(=O)NCCc1ccccc1)CO2` [Example 94, ethyl (S)-5-(5-methyl-4-oxo-3-(2-oxo-2-(phenethylamino)acetamido)-2,3,4,5-tetrahydrobenzo[b][1,4]oxazepin-7-yl) pent-4-ynoate]: the “Inhibition rate range of compounds” value in assay [1] was “B (B: 50-89%)”. The EC50 in assay [2] is 0.1 to 0.5 µM.

Regarding `CN1C(=O)[C@@H](NC(=O)C(=O)NCc2ccccc2)COc2ccc(C#CCn3ccnc3)cc21` [Example 104, (S)—N^1-(7-(3-(1H-imidazol-1-yl)prop-1-yn-1-yl)-5-methyl-4-oxo-2,3,4,5-tetrahydrobenzo[b][1,4]oxazepin-3-yl)-N^2-benzyloxalamide], the “Inhibition rate range of compounds” value in assay [1] was “A (A: ≥90%)”. Moreover, the EC50 in assay [2] is below 0.1 µM.

For the molecule `CN1C(=O)[C@@H](NC(=O)C(=O)NCc2ccccc2)COc2ccc(C#CCN3CCOCC3)cc21` [Example 106, (S)—N^1-benzyl-N^2-(5-methyl-7-(3-morpholinoprop-1-yn-1-yl)-4-oxo-2,3,4,5-tetrahydrobenzo[b][1, 4]oxazepin-3-yl)oxalamide], the “Inhibition rate range of compounds” value in assay [1] was “B (B: 50-89%)”. Besides, the EC50 in assay [2] is below 0.1 µM.

`CN1C(=O)[C@@H](NC(=O)C(=O)NCc2ccccc2)COc2ccc(C#CCN3CCNC(=O)C3)cc21` [Example 107, (S)—N^1-benzyl-N^2-(5-methyl-4-oxo-7-(3-(3-oxopiperazin-1-yl)prop-1-yn-1-yl)-2,3,4,5-tetrahydrobenzo[b][1,4]oxazepin-3-yl)oxalamide]: in assay [1], the “Inhibition rate range of compounds” value is listed as “A (A: ≥90%)”. In addition, the EC50 in assay [2] was below 0.1 µM.

`CN1C(=O)[C@H](NC(=O)C(=O)NCCc2cccc(F)c2)COc2ccc(C#CCCO)cc21` [Example 109, (R)—N^1-(3-fluorophenethyl)-N^2-(7-(4-hydroxybut-1-yn-1-yl)-5-methyl-4-oxo-2,3,4,5-tetrahydrobenzo[b][1,4]oxazepin-3-yl)oxalamide]: in assay [1], the “Inhibition rate range of compounds” value is “A (A: ≥90%)”. Besides, the EC50 in assay [2] was below 0.1 µM.

In the case of `CN1C(=O)[C@@H](NC(=O)C(=O)NCCc2cccc(F)c2)COc2ccc(C#CC3(O)COC3)cc21` [Example 110, (S)—N^1-(3-fluorophenethyl)-N^2-(7-((3-hydroxyoxetan-3-yl)ethynyl)-5-methyl-4-oxo-2,3,4,5-tetrahydrobenzo[b][1,4]oxazepin-3-yl)oxalamide], in assay [1], the “Inhibition rate range of compounds” value is on record as “A (A: ≥90%)”. The EC50 in assay [2] was below 0.1 µM.

With `CN1C(=O)[C@@H](NC(=O)C(=O)NCCc2cccc(F)c2)COc2ccc(C#CCN3CC[C@@H](O)C3)cc21` [Example 114, N^1-(3-fluorophenethyl)-N^2-((S)-7-(3-((R)-3-hydroxypyrrolidin-1-yl)prop-1-yn-1-yl)-5-methyl-4-oxo-2,3,4,5-tetrahydrobenzo[b][1,4]oxazepin-3-yl)oxalamide], the “Inhibition rate range of compounds” value in assay [1] is listed as “A (A: ≥90%)”. The 50% effective concentration (EC50) in assay [2] was below 0.1 µM.

For `CN1C(=O)[C@@H](NC(=O)C(=O)NCCc2cccc(F)c2)COc2ccc(C#CCN3CC[C@H](O)C3)cc21` [Example 115, N^1-(3-fluorophenethyl)-N^2-((S)-7-(3-((S)-3-hydroxypyrrolidin-1-yl)prop-1-yn-1-yl)-5-methyl-4-oxo-2,3,4,5-tetrahydrobenzo[b][1,4]oxazepin-3-yl)oxalamide], the “Inhibition rate range of compounds” value in assay [1] is listed as “A (A: ≥90%)”. In addition, in assay [2], the EC50 is below 0.1 µM.

With `CN1C(=O)[C@@H](NC(=O)C(=O)NCCc2cccc(F)c2)COc2ccc(C#Cc3cccnc3)cc21` [Example 117, (S)—N^1-(3-fluorophenethyl)-N^2-(5-methyl-4-oxo-7-(pyridin-3-ylethynyl)-2,3,4,5-tetrahydrobenzo[b][1,4]oxazepin-3-yl)oxalamide], the “Inhibition rate range of compounds” value in assay [1] was “A (A: ≥90%)”. In assay [2], the EC50 was below 0.1 µM.

As to `CN1C(=O)[C@@H](NC(=O)C(=O)NCCc2cccc(F)c2)COc2ccc(C#CCN3CCC(=O)CC3)cc21` [Example 118, (S)—N^1-(3-fluorophenethyl)-N^2-(5-methyl-4-oxo-7-(3-(4-oxopiperidin-1-yl)prop-1-yn-1-yl)-2,3,4,5-tetrahydrobenzo[b][1,4]oxazepin-3-yl)oxalamide], in assay [1], the “Inhibition rate range of compounds” value was “A (A: ≥90%)”. In assay [2], the EC50 is below 0.1 µM.

Take `CN1C(=O)[C@@H](NC(=O)C(=O)NCCc2cccc(F)c2)COc2ccc(C#CCN3CCOCC3)cc21` [Example 120, (S)—N^1-(3-fluorophenethyl)-N^2-(5-methyl-7-(3-morpholinoprop-1-yn-1-yl)-4-oxo-2,3,4,5-tetrahydrobenzo[b][1,4]oxazepin-3-yl)oxalamide]: the “Inhibition rate range of compounds” value in assay [1] is “A (A: ≥90%)”. Moreover, the EC50 in assay [2] is below 0.1 µM.

In the case of `CN1C(=O)[C@@H](NC(=O)C(=O)NCCc2cccc(F)c2)COc2ccc(C#CCN3C(=O)CCC3=O)cc21` [Example 122, (S)—N^1-(7-(3-(2,5-dioxopyrrolidin-1-yl)prop-1-yn-1-yl)-5-methyl-4-oxo-2,3,4,5-tetrahydrobenzo[b][1,4]oxazepin-3-yl)-N^2-(3-fluorophenethyl)oxalamide], the “Inhibition rate range of compounds” value in assay [1] is “A (A: ≥90%)”. Further, the EC50 in assay [2] is below 0.1 µM.

With `CN1C(=O)[C@@H](NC(=O)C(=O)NCCc2cccc(F)c2)COc2ccc(C#CCN3CCNC(=O)C3)cc21` [Example 123, (S)—N^1-(3-fluorophenethyl)-N^2-(5-methyl-4-oxo-7-(3-(3-oxopiperazin-1-yl)prop-1-yn-1-yl)-2,3,4,5-tetrahydrobenzo[b][1,4]oxazepin-3-yl)oxalamide], in assay [1], the “Inhibition rate range of compounds” value was “B (B: 50-89%)”. For the same molecule, the concentration giving a half-maximal response (EC50) in assay [2] was below 0.1 µM.

As for `C[C@@H](NC(=O)C(=O)N[C@H]1COc2ccc(C#CCN3CC[C@@H](O)C3)cc2N(C)C1=O)c1ccccc1` [Example 128, N^1-((S)-7-(3-((R)-3-hydroxypyrrolidin-1-yl)prop-1-yn-1-yl)-5-methyl-4-oxo-2,3,4,5-tetrahydrobenzo[b][1,4]oxazepin-3-yl)-N^2-((R)-1-phenylethyl)oxalamide], the “Inhibition rate range of compounds” value in assay [1] is “B (B: 50-89%)”. For the same molecule, the 50% effective concentration (EC50) in assay [2] is below 0.1 µM.

Regarding `C[C@@H](NC(=O)C(=O)N[C@H]1COc2ccc(C#CCN3CC[C@H](O)C3)cc2N(C)C1=O)c1ccccc1` [Example 130, N^1-((S)-7-(3-((S)-3-hydroxypyrrolidin-1-yl)prop-1-yn-1-yl)-5-methyl-4-oxo-2,3,4,5-tetrahydrobenzo[b][1,4]oxazepin-3-yl)-N^2-((R)-1-phenylethyl)oxalamide], the “Inhibition rate range of compounds” value in assay [1] is on record as “A (A: ≥90%)”. In addition, the EC50 in assay [2] is below 0.1 µM.

`C[C@@H](NC(=O)C(=O)N[C@H]1COc2ccc(C#CC3(O)COC3)cc2N(C)C1=O)c1ccccc1` [Example 132, N^1-((S)-7-((3-hydroxyoxetan-3-yl)ethynyl)-5-methyl-4-oxo-2,3,4,5-tetrahydrobenzo[b][1,4]oxazepin-3-yl)-N^2-((R)-1-phenylethyl)oxalamide]: the “Inhibition rate range of compounds” value in assay [1] was “A (A: ≥90%)”. Besides, the half-maximal effective concentration (EC50) in assay [2] is below 0.1 µM.

Take `C[C@@H](NC(=O)C(=O)N[C@H]1COc2ccc(C#CC3CCN(CC#N)CC3)cc2N(C)C1=O)c1ccccc1` [Example 137, N^1-((S)-7-((1-(cyanomethyl)piperidin-4-yl)ethynyl)-5-methyl-4-oxo-2,3,4,5-tetrahydrobenzo[b][1, 4]oxazepin-3-yl)-N^2-((R)-1-phenylethyl)oxalamide]: in assay [1], the “Inhibition rate range of compounds” value is “A (A: ≥90%)”. In addition, the concentration for a half-maximal effect (EC50) in assay [2] was below 0.1 µM.

On to `C[C@@H](NC(=O)C(=O)N[C@H]1COc2ccc(C#CCN3CCC(O)CC3)cc2N(C)C1=O)c1ccccc1` [Example 138, N^1-((S)-7-(3-(4-hydroxypiperidin-1-yl)prop-1-yn-1-yl)-5-methyl-4-oxo-2,3,4,5-tetrahydrobenzo[b][1,4]oxazepin-3-yl)-N^2-((R)-1-phenylethyl)oxalamide], for which the “Inhibition rate range of compounds” value in assay [1] is “A (A: ≥90%)”. Also, in assay [2], the concentration giving a half-maximal response (EC50) was below 0.1 µM.
